Key:
[1] = Fe-porphyrin catalyzed oxidation of DHTz; conditions: DHTz 35 uM in PBS pH 7.4, air
Method: (§1) 4-Oxo-4-((6-(6-(pyridin-2-yl)-1,4-dihydro-1,2,4,5-tetrazin-3-yl)pyridin-3-yl)amino)butanoic acid (35 uM in PBS (pH 7.4), 2 mL) was placed in a 1 cm×1 cm cuvette with a strongly stirred magnetic stir bar in an atmosphere of air. A solution of Fe-TMPyP (50 uM in PBS (pH 7.4), 20 uL) was added to the cuvette. The reaction was monitored by a UV-Vis spectrometer at 280 nm and 325 nm.
as §1, with “Fe-TPPS” for “Fe-TMPyP”

[2] = DHTz stability in PBS containing 10% mouse serum; type: in vitro ADME; conditions: 1 h
Source text: A challenge to the development of catalytic methods for turning on the tetrazine ligation was the identification of a DHTz/Tz pair that would be stable in both oxidation states (FIG. 1, panel B). For most redox couples, either the DHTz is too readily oxidized in air (e.g., 1), or the Tz is too reactive toward water and other nucleophiles (e.g., 2). The inventors show here that the dipyridyl DHTz/Tz pair (3/4) has good stability in both states (FIG. 1, panel C). Dihydrotetrazines 3 are highly resistant toward background oxidation in organic solvents, and a number of derivatives have been synthesized and shown stable even to silica gel chromatography. […] Aqueous solutions of 3a were handled in glassware that had been first rinsed with 2.0 mM EDTA in PBS to remove adventitious metal impurities. After standing in the dark at 25° C. in PBS buffer, a solution of 3a was monitored by UV-vis and shown to retain 99 and 96% of the DHTz oxidation state over 30 min and 2.5 hours respectively. […] In PBS containing 10% mouse serum, 90% of 3a was retained in the DHTz oxidation state after 1 h. Analogs of tetrazines 4 have been described previously and used broadly for applications in nuclear medicine and cell imaging. […]

[3] = target: T1, horseradish peroxidase (HRP) (Armoracia rusticana, UniProt P00433); assay: Horseradish peroxidase (HRP) catalyzed oxidation of DHTz to tetrazine; type: biochemical; conditions: [3a] 8 μM; HRP 15 nM; first 10 seconds
T1 sequence (P00433 31-338): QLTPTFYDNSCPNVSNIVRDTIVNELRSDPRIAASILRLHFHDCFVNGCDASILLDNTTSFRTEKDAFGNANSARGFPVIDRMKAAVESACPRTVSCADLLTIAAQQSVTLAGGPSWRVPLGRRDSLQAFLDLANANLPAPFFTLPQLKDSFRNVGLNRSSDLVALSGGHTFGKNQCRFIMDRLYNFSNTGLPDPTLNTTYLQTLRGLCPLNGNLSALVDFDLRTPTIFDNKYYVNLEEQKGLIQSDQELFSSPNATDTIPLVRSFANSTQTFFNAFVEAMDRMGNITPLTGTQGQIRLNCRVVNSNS

[4] = tested on: A19V D222G APEX2; assay: Oxidation of 15 by APEX2 variant A19V D222G APEX2; type: biochemical; conditions: 15 40 μM, enzyme 275 nM, PBS with EDTA
Method: 15 (40 μM) from methanol stock solutions was added to PBS containing […] EDTA. After 10s, APEX2 (275 nM) was dosed in and oxidation was monitored at 325 nm for 15. The procedure stated above was repeated for F41A APEX2 and A19V D222G APEX2. (FIG. 17).

[5] = tested on: ferricytochrome C; assay: Background oxidation of DHTZ by ferricytochrome C; type: biochemical; conditions: ferricytochrome c two orders of magnitude higher concentration than APEX2
Source text: Superoxide has been reported to reduce ferricytochrome C Fe(III) to ferrocytochrome C Fe(II) and O2. Superoxide production during oxidation of DHTZ by APEX2 (SEQ ID NO:1) has been detected by following the reduction of ferricytochrome C Fe(III) to ferrocytochrome C Fe(II) (λmax=550 nm) by UV-Vis spectrometry (FIG. 11C-D). Two wavelengths, 325 nm for tetrazine formation and 550 nm for ferrocytochrome c formation, were followed where reduction of ferricytochrome C by the superoxide byproduct formed during DHTZ oxidation was observed. Addition of SOD stopped the formation of ferrocytochrome C, thus confirming that superoxide is formed during oxidation of DHTZ by APEX2 (SEQ ID NO:1). A stoichiometric background oxidation of DHTZ by ferricytochrome C was observed where the rate of the oxidation of 15 by ferricytochrome c was 2× slower than APEX2 (SEQ ID NO:1) at ferricytochrome c concentrations two orders of magnitude higher than APEX2 (SEQ ID NO:1). While oxidation of DHTZ by cytochrome C is not catalytic or feasible for intracellular applications, it does confirm that DHTZ undergoes two successive one-electron oxidations as cytochrome C cannot oxidize substrates by two-electron oxidations.
15 (10 μM) from stock solution was added to PBS containing 100 μM EDTA. Ferricytochrome C (60 μM) was dosed in after 10 seconds followed by addition of APEX2 (SEQ ID NO:1) ([…]). […]

retained in the DHTz oxidation state [2] [%]	Rate of HRP Oxidation of 3a [3] [M/s]	Compound	time to 50% completion of oxidation ([1]; Fe-TMPyP) [min]	time to 95% completion of oxidation ([1]; Fe-TMPyP) [min]	time to 50% completion of oxidation ([1]; Fe-TPPS) [min]	oxidation by A19V D222G APEX2 (tetrazine formation at 325 nm) [4]	rate of oxidation by ferricytochrome c slower than APEX2 [5] [×]
90	3.4e-08	O=C(O)CCC(=O)Nc1ccc(C2=NNC(c3ccccn3)=NN2)nc1 [3a, 4-oxo-4-((6-(6-(pyridin-2-yl)-1,4-dihydro-1,2,4,5-tetrazin-3-yl)pyridin-3-yl)amino)butanoic Acid]	≤ 1	≤ 5	≤ 5		
		O=C(O)CCCC(=O)Nc1ccc(C2=NNC(c3ccccn3)=NN2)nc1 [compound 15]				can oxidize 15	2

— US11485987B2, “Methods for inducing bioorthogonal reactivity” (University of Delaware, priority 2015, dated 2022)
